Assay results: patent US11292801B2, “Calpain modulators and therapeutic uses thereof” (Blade Therapeutics, Inc., priority 2016, dated 2022)

What was measured:
[1] = target: T1, Human Calpain 1/NS1 (Homo sapiens, UniProt P07384); assay: Biochemical inhibition of calpain 1, continuous fluorescence (FRET substrate) assay; settings: mean, read-out: Human Calpain 1/NS1 IC50 (nM)_MEAN
T1 sequence (P07384 1-714): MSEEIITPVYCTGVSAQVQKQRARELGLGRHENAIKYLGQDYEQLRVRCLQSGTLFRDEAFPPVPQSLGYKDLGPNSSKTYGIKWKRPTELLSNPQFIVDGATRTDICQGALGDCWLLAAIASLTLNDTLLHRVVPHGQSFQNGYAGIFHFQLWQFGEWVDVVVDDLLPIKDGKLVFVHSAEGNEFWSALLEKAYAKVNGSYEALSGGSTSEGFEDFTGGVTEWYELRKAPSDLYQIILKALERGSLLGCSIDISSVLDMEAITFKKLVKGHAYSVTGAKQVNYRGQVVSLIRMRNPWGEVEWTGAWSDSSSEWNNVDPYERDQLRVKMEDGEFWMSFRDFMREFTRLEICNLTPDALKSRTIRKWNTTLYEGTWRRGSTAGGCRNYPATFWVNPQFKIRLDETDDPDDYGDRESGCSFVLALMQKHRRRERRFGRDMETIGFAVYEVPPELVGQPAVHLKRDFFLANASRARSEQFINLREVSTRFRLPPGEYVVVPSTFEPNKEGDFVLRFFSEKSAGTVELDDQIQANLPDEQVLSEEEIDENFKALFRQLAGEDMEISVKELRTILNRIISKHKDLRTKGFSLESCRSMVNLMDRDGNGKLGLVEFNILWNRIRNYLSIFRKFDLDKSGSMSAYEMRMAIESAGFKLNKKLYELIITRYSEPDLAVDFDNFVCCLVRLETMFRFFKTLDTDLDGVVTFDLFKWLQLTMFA
T1 sequence (P04632 1-268 partner): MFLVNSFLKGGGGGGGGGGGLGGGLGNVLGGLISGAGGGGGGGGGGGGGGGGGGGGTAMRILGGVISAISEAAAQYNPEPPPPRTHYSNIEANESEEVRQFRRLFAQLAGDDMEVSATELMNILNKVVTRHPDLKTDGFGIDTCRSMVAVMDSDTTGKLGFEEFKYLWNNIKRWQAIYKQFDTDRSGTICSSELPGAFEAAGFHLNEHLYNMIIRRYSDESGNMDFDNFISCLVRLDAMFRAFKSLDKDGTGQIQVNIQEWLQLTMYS
Experimental: (§1) Calpain 1, 2, and 9 activity and inhibition thereof are assessed by means of a continuous fluorescence assay. The SensoLyte 520 Calpain substrate (Anaspec Inc) is optimized for detecting calpain activity. This substrate contains a novel internally quenched 5-FAM/QXL™ 520 FRET pair. Calpains 1, 2, and 9 cleave the FRET substrate into two separate fragments resulting in an increase of 5-FAM fluorescence that is proportional to calpain activity.
(§2) Assays are typically setup in black 384-well plates using automated liquid handling as follows. Calpain assay base buffer typically contains 50 mM Tris, pH˜7.5, 100 mM NaCl and 1 mM DTT. Inhibitors are serially diluted in DMSO and used to setup 2× mixtures with calpains in the aforementioned buffer. After incubation at ambient temperature (25C), the reaction is initiated by adding a 2× mix of the fluorescent peptide substrate and CaCl2) (required for in-situ calpain activation) in the same buffer. Reaction progress curve data are typically collected for 10 min using excitation/emission wavelengths of 490 nm/520 nm on SpectraMax i3× or the FLIPR-Tetra plate readers (Molecular Devices Inc). Reaction rates were calculated from progress curve slopes typically over 1-5 min. Dose response curves (rate vs. log inhibitor concentration) were typically fit to a 4-parameter logistic function to extract IC50 values.

[2] = target: T2, Human Calpain 2/NS1 (Homo sapiens, UniProt P17655); assay: Biochemical inhibition of calpain 2, continuous fluorescence (FRET substrate) assay; settings: mean, read-out: Human Calpain 2/NS1 IC50 (nM)_MEAN
T2 sequence (P17655 1-700): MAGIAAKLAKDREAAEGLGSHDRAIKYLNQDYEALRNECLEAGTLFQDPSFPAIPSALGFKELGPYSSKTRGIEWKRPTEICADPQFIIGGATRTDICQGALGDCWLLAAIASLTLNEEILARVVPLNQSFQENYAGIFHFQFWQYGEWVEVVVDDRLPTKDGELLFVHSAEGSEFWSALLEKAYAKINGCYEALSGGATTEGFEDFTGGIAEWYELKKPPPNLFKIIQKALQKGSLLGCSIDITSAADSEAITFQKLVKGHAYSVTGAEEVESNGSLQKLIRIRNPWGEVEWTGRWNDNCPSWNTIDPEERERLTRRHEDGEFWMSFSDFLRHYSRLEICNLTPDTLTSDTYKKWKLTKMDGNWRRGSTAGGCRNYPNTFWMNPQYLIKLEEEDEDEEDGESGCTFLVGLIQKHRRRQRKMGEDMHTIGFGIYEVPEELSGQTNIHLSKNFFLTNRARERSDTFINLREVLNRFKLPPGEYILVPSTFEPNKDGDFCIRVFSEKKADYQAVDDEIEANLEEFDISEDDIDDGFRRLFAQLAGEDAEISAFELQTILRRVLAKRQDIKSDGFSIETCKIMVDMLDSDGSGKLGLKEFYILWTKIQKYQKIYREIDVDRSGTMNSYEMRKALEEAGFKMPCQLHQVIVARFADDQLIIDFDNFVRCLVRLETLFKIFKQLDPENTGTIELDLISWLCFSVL
T2 sequence (P04632 1-268 partner): T1 sequence (P04632 1-268 partner)
Experimental: as §1, §2

[3] = target: T3, Human Calpain 9/NS1 (Homo sapiens, UniProt O14815); assay: Biochemical inhibition of calpain 9, continuous fluorescence (FRET substrate) assay; settings: mean, read-out: Human Calpain 9/NS1 IC50 (nM)_MEAN
T3 sequence (O14815 1-690): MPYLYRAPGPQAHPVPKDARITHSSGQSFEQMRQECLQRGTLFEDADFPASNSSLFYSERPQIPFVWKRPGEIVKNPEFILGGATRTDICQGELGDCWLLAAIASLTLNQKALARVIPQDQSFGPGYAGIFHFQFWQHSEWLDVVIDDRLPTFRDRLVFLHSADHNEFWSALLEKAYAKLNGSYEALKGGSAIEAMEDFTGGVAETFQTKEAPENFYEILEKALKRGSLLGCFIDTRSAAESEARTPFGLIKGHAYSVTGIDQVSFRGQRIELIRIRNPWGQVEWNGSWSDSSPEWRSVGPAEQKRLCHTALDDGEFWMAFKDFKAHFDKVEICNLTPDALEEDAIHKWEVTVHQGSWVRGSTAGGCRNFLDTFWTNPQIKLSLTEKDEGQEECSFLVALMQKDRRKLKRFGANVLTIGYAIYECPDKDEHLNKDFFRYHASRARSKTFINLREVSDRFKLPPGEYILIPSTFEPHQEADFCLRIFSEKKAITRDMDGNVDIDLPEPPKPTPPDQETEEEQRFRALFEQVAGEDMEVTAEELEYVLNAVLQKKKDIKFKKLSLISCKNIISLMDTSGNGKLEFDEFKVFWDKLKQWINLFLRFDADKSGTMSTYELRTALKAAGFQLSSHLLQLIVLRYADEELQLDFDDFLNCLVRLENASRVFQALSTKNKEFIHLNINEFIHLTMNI
T3 sequence (P04632 1-268 partner): T1 sequence (P04632 1-268 partner)
Experimental: as §1, §2

IC50 [1] [nM] | IC50 [2] [nM] | IC50 [3] [nM] | Structure (SMILES)
> 10000 | > 10000 | > 10000 | O=C(NC1CC1)C(=O)C1CCCCOCCOCc2ccccc2C(=O)N1 (centres unmarked) [Compound 114, N-cyclopropyl-2-oxo-2-(12-oxo-1,3,4,6,7,8,9,10,11,12-decahydrobenzo[f][1,4]dioxa[9]azacyclotetradecin-10-yl)acetamide]
> 10000 | > 10000 | > 10000 | Cc1cccc(Cl)c1CNC(=O)C(=O)C1CCCCOCCOCc2ccccc2C(=O)N1 (centres unmarked) [Compound 86, N-(2-chloro-6-methylbenzyl)-2-oxo-2-(12-oxo-1,3,4,6,7,8,9,10,11,12-decahydrobenzo[f][1,4]dioxa[9]azacyclotetradecin-10-yl)acetamide]
> 10000 | > 10000 | > 10000 | NC(=O)C(O)[C@@H]1CCCCCOc2ccnc(n2)-c2ccccc2C(=O)N1 (some centres unmarked) [Compound 147]
> 10000 | 3000 to 10000 | 3000 to 10000 | COc1ccc(CNC(=O)C(=O)C2CCCCOCCOCc3ccccc3C(=O)N2)c(OC)c1 (centres unmarked) [Compound 99, N-(2,4-dimethoxybenzyl)-2-oxo-2-(12-oxo-1,3,4,6,7,8,9,10,11,12-decahydrobenzo[f][1,4]dioxa[9]azacyclotetradecin-10-yl)acetamide]
< 3000 | < 3000 | < 3000 | O=C[C@@H]1CCCCCCOc2ccnc(c2)-c2ccccc2C(=O)N1 [Compound 131, (S)-3-oxo-12-oxa-4-aza-1(2,4)-pyridina-2(1,2)-benzenacyclododecaphane-5-carbaldehyde]
> 10000 | > 10000 | < 3000 | O=C(NCc1ccccn1)C(=O)C1CCCCOCCOCc2ccccc2C(=O)N1 (centres unmarked) [Compound 94, 2-Oxo-2-(12-oxo-1,3,4,6,7,8,9,10,11,12-decahydrobenzo[f][1,4]dioxa[9]aza-cyclotetradecin-10-yl)-N-(pyridin-2-ylmethyl)acetamide]
> 10000 | > 10000 | – | O=C(NC1CCCC1)C(=O)C1CCCCOCCOCc2ccccc2C(=O)N1 (centres unmarked) [Compound 109, N-cyclopentyl-2-oxo-2-(12-oxo-1,3,4,6,7,8,9,10,11,12-decahydrobenzo[f][1,4]dioxa[9]azacyclotetradecin-10-yl)acetamide]

The remaining lines, values behind:

Structure (SMILES) | IC50 [1] [nM] | IC50 [2] [nM] | IC50 [3] [nM]
O=C[C@@H]1Cc2ccc(cc2)OCCCCOc2cccc(c2)-c2ccn(n2)-c2ncccc2C(=O)N1 [Compound 46, (6S,E)-4-oxo-2^1H-9,14-dioxa-5-aza-3(2,3)-pyridina-2(3,1)-pyrazola-1(1,3),8(1,4)-dibenzenacyclotetradecaphane-6-carbaldehyde] | < 3000 | < 3000 | < 3000
O=C[C@@H]1Cc2ccc(cc2)CCCCc2cccc(c2)-c2ccn(n2)-c2ncccc2C(=O)N1 [Compound 73, (10S,E)-12-oxo-2^1H-11-aza-1(2,3)-pyridina-2(1,3)-pyrazola-3(1,3),8(1,4)-dibenzenacyclododecaphane-10-carbaldehyde] | < 3000 | < 3000 | < 3000
O=C[C@@H]1CCCCCOc2cccc(c2)-c2ncccc2C(=O)N1 [Compound 38, (S)-11-Oxo-3-oxa-10-aza-1(2,3)-pyridina-2(1,3)-benzenacycloundecaphane-9-carbaldehyde] | < 3000 | < 3000 | < 3000
O=C[C@@H]1C/C=C/CCCCCCc2ccccc2C(=O)N1 [Compound 10, (S,E)-1-Oxo-1,2,3,4,7,8,9,10,11,12-decahydrobenzo[c][1]aza-cyclotetradecine-3-carbaldehyde] | 3000 to 10000 | < 3000 | < 3000
O=C(NCc1ccc(Cl)c(Cl)c1)C(=O)C1CCCCOCCOCc2ccccc2C(=O)N1 (centres unmarked) [Compound 83, N-(3,4-dichlorobenzyl)-2-oxo-2-(12-oxo-1,3,4,6,7,8,9,10,11,12-decahydrobenzo[f][1,4]dioxa[9]azacyclotetradecin-10-yl)acetamide] | > 10000 | 3000 to 10000 | < 3000
O=C(NC1CC1)C(=O)[C@@H]1Cc2ccc(cc2)OCCCCOc2cccc(c2)-c2ccn(n2)-c2ncccc2C(=O)N1 [Compound 72, N-cyclopropyl-2-oxo-2-((6S,E)-4-oxo-2^1H-9,14-dioxa-5-aza-3(2,3)-pyridina-2(3,1)-pyrazola-1(1,3),8(1,4)-dibenzenacyclotetradecaphane-6-yl)acetamide] | < 3000 | < 3000 | < 3000
O=C[C@@H]1Cc2ccc(cc2)OCC=CCOc2ccc3nn(cc3c2)-c2ncccc2C(=O)N1 [Compound 71, (1^3Z,1^4E,5S)-3-oxo-1^2H-8,13-dioxa-4-aza-1(2,5)-indazola-2(2,3)-pyridina-7(1,4)-benzenacyclotridecaphan-10-ene-5-carbaldehyde] | < 3000 | < 3000 | < 3000
O=C[C@@H]1CC=CCCOc2cccc(c2)-c2ncccc2C(=O)N1 [Compound 37, (S)-11-Oxo-3-oxa-10-aza-1(2,3)-pyridina-2(1,3)-benzenacycloundecaphan-6-ene-9-carbaldehyde] | < 3000 | < 3000 | < 3000
O=C(NC1CC1)C(=O)[C@@H]1Cc2ccc(cc2)OCCCCOc2ccc3c(cnn3-c3ncccc3C(=O)N1)c2 [Compound 68, N-cyclopropyl-2-oxo-2-((5S)-3-oxo-1^1H-8,13-dioxa-4-aza-1(1,5)-indazola-2(2,3)-pyridina-7(1,4)-benzenacyclotridecaphane-5-yl)acetamide] | < 3000 | < 3000 | < 3000
